# Data reported in patent US20040023972A1, “Use of substituted imidazo[1,2-a]-pyridin-, -pyrimidin-and-pyrazin-3-yl-amine derivatives in the preparation of medicaments for inhibiting NOS” (Gruenenthal GmbH, priority 2000, published 2004).
# Molecular target: T1, NO synthase (Rattus norvegicus, UniProt P29476)
# T1 construct: the supernatant was then removed by decantation and frozen in portions at −80° C; from tissue; host or cells: rat cerebellum, 20,000 g supernatant of homogenate
# Assay: HTS-NOS assay (NOS assay): conversion of radioactive arginine, cation-exchanger filter plate
# Type: biochemical
# Details: 10 μM
# Procedure, shortened: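 Percent inhibition was derived by comparing remaining radioactive arginine with compound-free controls. Arginine retained on phosphate cation-exchanger filters was counted after citrulline washout, following a 5-60 min room-temperature (25 °C) reaction of labelled arginine, NADPH-containing medium and rat cerebellar homogenate supernatant.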
row,HTS-NOS assay: % inhibition (10 μM) [%],Structure (SMILES)
1,54,"CC(=O)OCc1ccc(-c2nc3ncccn3c2N(C(C)=O)C(C)(C)CC(C)(C)C)o1 [Example 249, acetic acid 5-{3-[acetyl-(1,1,3,3-tetramethyl-butyl)-amino]-imidazo[1,2-a]-pyrimidin-2-yl}-furan-2-yl methyl ester]"
2,51,"CC(=O)OCc1ccc(-c2nc3cccc(C)n3c2N(C(C)=O)C2CCCCC2)o1 [Example 260, acetic acid 5-[3-(acetyl-cyclohexyl-amino)-5-methyl-imidazo[1,2-a]pyridin-2-yl]-furan-2-yl methyl ester]"
3,61,"CC(=O)N(c1c(C)cccc1C)c1c(-c2ccccc2C(F)(F)F)nc2ccc(C)cn12 [Example 261, N-(2,6-dimethyl-phenyl)-N-[6-methyl-2-(2-trifluorO-methyl-phenyl)-imidazo[1,2-a]pyridin-3-yl]-acetamide]"

row,Structure (SMILES),HTS-NOS assay: % inhibition (10 μM) [%]
1,"C#[N+]CCCCCCN(C(C)=O)c1c(-c2ccc(C)cc2)nc2cc(C)ccn12 [Example 279, {6-[acetyl-(7-methyl-2-p-tolyl-imidazo[1,2-a]pyridin-3-yl)-amino]-hexyl}-methylidyne-ammonium]",71
2,"[C-]#[N+]CCCCCCN(C(C)=O)c1c(-c2ccccc2OC)nc2cc(C)ccn12 [Example 281, (6-{acetyl-[2-(2-methoxy-phenyl)-7-methyl-imidazo[1,2-a]pyridin-3-yl]-amino}-hexyl)-methylidyne-ammonium]",62

# Same assay, conditions: read-out: HTS-NOS assay: % inhibition (10 μM)
row,inhibition at 10 µM [%],Structure (SMILES)
1,58,"CC(=O)N(c1c(C)nc2cc(C)ccn12)C(C)(C)CC(C)(C)C [Example 250, N-(2,7-dimethyl-imidazo[1,2-a]pyridin-3-yl)-N-(1,1,3,3-tetramethyl-butyl)-acetamide]"
2,51,"COc1cc(-c2nc3nc(Cl)cc(N)n3c2N(C(C)=O)C2CCCCC2)ccc1OC(C)=O [Example 251, acetic acid 4-[3-(acetyl-cyclohexyl-amino)-5-amino-7-chloro-imidazo[1,2-a]-pyrimidin-2-yl]-2-methoxy-phenyl ester]"
3,53,"COc1cc(-c2nc3nc(C)cc(C)n3c2N(C(C)=O)C2CCCCC2)ccc1OC(C)=O [Example 252, acetic acid 4-[3-(acetyl-cyclohexyl-amino)-5,7-dimethyl-imidazo[1,2-a]-pyrimidin-2-yl]-2-methoxy-phenyl ester]"
4,51,"CC(=O)N(c1c(-c2c(F)cccc2Cl)nc2c(C)cc(Br)cn12)C1CCCCC1 [Example 253, N-[6-bromo-2-(2-chloro-6-fluoro-phenyl)-8-methyl-imidazo[1,2-a]pyridin-3-yl]-N-cyclohexyl-acetamide]"
5,51,"CC(=O)N(c1c(-c2c(F)cccc2Cl)nc2cccc(C)n12)C1CCCCC1 [Example 254, N-[2-(2-chloro-6-fluoro-phenyl)-5-methyl-imidazo[1,2-a]pyridin-3-yl]-N-cyclohexyl-acetamide]"
6,65,"CCCCN(C(C)=O)c1c(-c2cccc(Cl)c2Cl)nc2ncccn12 [Example 255, N-butyl-N-[2-(2,3-dichloro-phenyl)-imidazo[1,2-a]pyrimidin-3-yl]-acetamide]"
7,55,"CC(=O)N(c1c(-c2ccc(Cl)s2)nc2ncccn12)C(C)(C)CC(C)(C)C [Example 256, N-[2-(5-chloro-thiophen-2-yl)-imidazo[1,2-a]pyrimidin-3-yl]-N-(1,1,3,3-tetramethyl-butyl)-acetamide]"
8,56,"COC(=O)CN(C(C)=O)c1c(C2CCCCC2)nc2cc(C)ccn12 [Example 257, [acetyl-(2-cyclohexyl-7-methyl-imidazo[1,2-a]pyridin-3-yl)-amino]-acetic acid methyl ester]"
9,60,"CC(=O)N(c1c(-c2c(F)cccc2Cl)nc2ccccn12)C(C)(C)C [Example 258, N-tert-butyl-N-[2-(2-chloro-6-fluoro-phenyl)-imidazo[1,2-a]pyridin-3-yl]-acetamide]"
10,73,"CC(=O)N(c1c(-c2ccccn2)nc2cc(C)cc(C)n12)C1CCCCC1 [Example 259, N-cyclohexyl-N-(5,7-dimethyl-2-pyridin-2-yl-imidazo[1,2-a]pyridin-3-yl)-acetamide]"
11,54,"CC(=O)N(c1c(-c2ccco2)nc2cc(C)ccn12)C1CCCCC1 [Example 262, N-cyclohexyl-N-(2-furan-2-yl-7-methyl-imidazo[1,2-a]pyridin-3-yl)-acetamide]"
12,64,"CC(=O)N(c1c(-c2ccccn2)nc2cc(C)ccn12)C1CCCCC1 [Example 263, N-cyclohexyl-N-(7-methyl-2-pyridin-2-yl-imidazo[1,2-a]pyridin-3-yl)-acetamide]"
13,50,"CC(=O)N(c1c(-c2ccc(C3OCCO3)o2)nc2cccc(C)n12)C1CCCCC1 [Example 264, N-cyclohexyl-N-[2-(5-[1,3]dioxolan-2-yl-furan-2-yl)-5-methyl-imidazo[1,2-a]-pyridin-3-yl]-acetamide]"
14,54,"CCCc1cccc2nc(-c3cccnc3)c(N(C(C)=O)C(C)(C)C)n12 [Example 265, N-tert-butyl-N-(5-propyl-2-pyridin-3-yl-imidazo[1,2-a]pyridin-3-yl)-acetamide]"
15,53,"CC(=O)N(c1c(-c2ccc(C)s2)nc2ncccn12)C(C)(C)C [Example 266, N-tert-butyl-N-[2-(5-methyl-thiophen-2-yl)-imidazo[1,2-a]pyrimidin-3-yl]-acetamide]"
16,62,"CC(=O)N(c1c(-c2ccco2)nc2c(C(=O)O)cccn12)C(C)(C)CC(C)(C)C [Example 267, 3-[acetyl-(1,1,3,3-tetramethyl-butyl)-amino]-2-furan-2-yl-imidazo[1,2-a]pyridine-8-carboxylic acid]"

row,inhibition at 10 µM [%],Structure (SMILES)
1,51,"CC(=O)N(c1c(-c2cc(C)c(C)o2)nc2ccc(C)cn12)C(C)(C)C [Example 268, N-tert-butyl-N-[2-(4,5-dimethyl-furan-2-yl)-6-methyl-imidazo[1,2-a]pyridin-3-yl]-acetamide]"
2,51,"CC(=O)N(c1c(-c2cccc(Oc3ccc(Cl)cc3)c2)nc2ccccn12)C1CCCCC1 [Example 269, N-{2-[3-(4-chloro-phenoxy)-phenyl]-imidazo[1,2-a]pyridin-3-yl}-N-cyclohexyl-acetamide]"
3,52,"COc1cc(-c2nc3ncccn3c2N(C(C)=O)C2CCCCC2)ccc1OC(C)=O [Example 270, acetic acid 4-[3-(acetyl-cyclohexyl-amino)-imidazo[1,2-a]pyrimidin-2-yl]-2-methoxy-phenyl ester]"
4,51,"CC(=O)N(c1c(-c2ccc(Br)o2)nc2c(C)cccn12)C(C)(C)CC(C)(C)C [Example 271, N-[2-(5-bromo-furan-2-yl)-8-methyl-imidazo[1,2-a]pyridin-3-yl]-N-(1,1,3,3-tetramethyl-butyl)-acetamide]"
5,54,"CC(=O)N(c1c(C)cccc1C)c1c(-c2cccc(O)c2)nc2nc(C)cc(C)n12 [Example 272, N-(2,6-dimethyl-phenyl)-N-[2-(3-hydroxy-phenyl)-5,7-dimethyl-imidazo[1,2-a]-pyrimidin-3-yl]-acetamide]"
6,55,"CC(=O)N(c1c(-c2cccc(Cl)c2Cl)nc2ccccn12)C1CCCCC1 [Example 273, N-cyclohexyl-N-[2-(2,3-dichloro-phenyl)-imidazo[1,2-a]pyridin-3-yl]-acetamide]"
7,64,"CC(=O)N(c1c(-c2ccc(Cl)cc2Cl)nc2cccc(C)n12)C1CCCCC1 [Example 274, N-cyclohexyl-N-[2-(2,4-dichloro-phenyl)-5-methyl-imidazo[1,2-a]pyridin-3-yl]-acetamide]"
8,59,"CC(=O)N(c1c(-c2ccc(Cl)cc2Cl)nc2ncccn12)C1CCCCC1 [Example 275, N-cyclohexyl-N-[2-(2,4-dichloro-phenyl)-imidazo[1,2-a]pyrimidin-3-yl]-acetamide]"
9,50,"COC(=O)CN(C(C)=O)c1c(-c2ccccc2C)nc2cnccn12 [Example 276, [acetyl-(2-o-tolyl-imidazo[1,2-a]pyrazin-3-yl)-amino]-acetic acid methyl ester]"
10,53,"CC(=O)N(c1c(-c2cccs2)nc2c(Cl)cc(Cl)cn12)C(C)(C)C [Example 277, N-tert-butyl-N-(6,8-dichloro-2-thiophen-2-yl-imidazo[1,2-a]pyridin-3-yl)-acetamide]"
11,55,"CCCc1cccc2nc(-c3cccs3)c(N(C(C)=O)C(C)(C)C)n12 [Example 278, N-tert-butyl-N-(5-propyl-2-thiophen-2-yl-imidazo[1,2-a]pyridin-3-yl)-acetamide]"
12,53,"CCCCN(C(C)=O)c1c(-c2ccc(C)cc2)nc2ccc(C)cn12 [Example 280, N-butyl-N-(6-methyl-2-p-tolyl-imidazo[1,2-a]pyridin-3-yl)-acetamide]"
13,51,"CC(=O)N(c1c(-c2ccc(C(=O)O)o2)nc2ccc(C)cn12)C(C)(C)CC(C)(C)C [Example 282, 5-{3-[acetyl-(1,1,3,3-tetramethyl-butyl)-amino]-6-methyl-imidazo[1,2-a]pyridin-2-yl}-furan-2-carboxylic acid]"
14,51,"CCCCN(C(C)=O)c1c(-c2cc(OC)c(OC)c(OC)c2)nc2cnccn12 [Example 283, N-butyl-N-[2-(3,4,5-trimethoxy-phenyl)-imidazo[1,2-a]pyrazin-3-yl]-acetamide]"
15,51,"CCCCN(C(C)=O)c1c(-c2cccc(O)c2)nc2ncccn12 [Example 284, N-butyl-N-[2-(3-hydroxy-phenyl)-imidazo[1,2-a]pyrimidin-3-yl]-acetamide]"
16,51,"COC(=O)CN(C(C)=O)c1c(-c2ccccc2C)nc2ncccn12 [Example 285, [acetyl-(2-o-tolyl-imidazo[1,2-a]pyrimidin-3-yl)-amino]-acetic acid methyl ester]"
